According to patent US20080026054A1, “Novel anelgesic combination” (NECTID INC., priority 2007, published 2008):
Counter-ions that a name gives are not always drawn.

Tested on: patients suffering from Chronic non-cancer pain (CNCP)
Assay: Human clinical trial, pain scored by visual analogue scale (VAS)
Format: in vivo
Details: mean ± SD, scale 0-100 mm
From the text: The present inventions disclosed in this specification further include a method of treating pain and pain related conditions. This was established using a well controlled human clinical trial. The method of treating pain and pain related conditions by using a combination disclosed by this invention has been established in a long-term controlled clinical evaluation. A typical study determined the efficacy of tramadol and meloxicam as monotherapy and a combination of meloxicam and a slow release tramadol for the treatment of pain and pain related conditions
• Tramadol hydrochloride: Generic Tramadol Hydrochloride tablets 50 mg, • Meloxicam: Generic Meloxicam tablets 7.5 mg • Slow Release Tramadol Hydrochloride: a) Example 1, b) Ultram ER 100 mg
The administered dosage comprised either tramadol hydrochloride (100 mg) or meloxicam 7.5 mg or a combination of meloxicam (7.5 mg) and slow release tramadol hydrochloride (100 mg) selected from Treatments D or E or a combination of meloxicam 5 mg and a slow release tramadol 100 mg (Treatment F) was administered once a day to the patients in a long-term clinical trial.
140 patients were used in a clinical trial were suffering from Chronic non-cancer pain (CNCP), defined as pain for longer than 6 months, including neuropathic pain, osteoarthritis, rheumatoid arthritis, fibromyalgia, and back and musculoskeletal pain were included in the clinical trial.
Those patients with migraines, dental pain, abdominal pains (from chronic pancreatitis, kidney stones, etc.) and ischemic pain from vascular disease were excluded because they are usually not classified as CNCP. Patients with history of addiction (alcohol or drugs) were excluded from the trials
Randomization was performed with computer-generated random numbers in blocks of 10. Randomization codes of the monotherapy or combination therapy treatments were placed in sequentially numbered, opaque, sealed envelopes in the biopsy center. When a patient was recruited and consented, the next numbered envelope was opened by the operator, who had no knowledge of the randomization code before the treatment
Pain was assessed using a visual analogue scale (VAS) graded from 0-100 mm. Pain scoring was performed every three hours after drug administration for a total of 24 hours.
The patients were taught with a standard method by the physician how to use a VAS scoring from 0 to 100 mm to grade the intensity of pain experienced during the treatment. On that scale, the left endpoint, 0, was defined as no pain and the right endpoint 100, as the worst pain the patient could imagine. There were no further marks on the line. The intensity of pain was indicated by the distance in millimeters from the left end. Patients were asked to grade the pain intensity immediately after the administration of drugs and every three hour after for 24 hours by drawing a vertical line over each VAS line. The doctors who prescribed the medicines obtained all the VAS forms for that specific patient.
Data are expressed as means ±SD. Differences in VAS were analyzed with use of the unpaired Student t test and differences in pain score reductions between the two groups were analyzed with use of the Mann-Whitney U test for the median difference. Similar statistical tests were used for between group comparisons of other outcome variables as appropriate. A two tailed P value of less than. […] SAS software was used for the statistical analysis.
We considered that a clinically significant benefit of using meloxicam and slow release tramadol would be a reduction in the pain score (VAS) of at least 15% compared to the monotherapy with either tramadol hydrochloride or naproxen or meloxicam or placebo. Alternatively, the dose reduction of at least 15% of either NSAID or tramadol when used as combination over the monotherapy as significant benefit

SMILES	Pain scored by VAS (VAS time 0 hours) [mm]	Pain scored by VAS (VAS time 3 hours) [mm]	Pain scored by VAS (VAS time 6 hours) [mm]	Pain scored by VAS (VAS time 9 hours) [mm]	Pain scored by VAS (VAS time 12 hours) [mm]	Pain scored by VAS (VAS time 15 hours) [mm]	Pain scored by VAS (VAS time 18 hours) [mm]	Pain scored by VAS (VAS time 21 hours) [mm]	Pain scored by VAS (VAS time 24 hours) [mm]
Cc1cnc(N/C(O)=C2/C(=O)c3ccccc3S(=O)(=O)N2C)s1 [Treatment B, 4-hydroxy-2-methyl-N-(5-methyl-2-thiazolyl)-2H-1,2-benzothiazine-3-carboxamide-1,1-dioxide]	34 ± 19.1	18 ± 19.1	14 ± 21.1	14 ± 20.3	15 ± 18.6	17 ± 21.5	19 ± 19.7	20 ± 18.3	25 ± 20.9
COc1cccc([C@@]2(O)CCCC[C@@H]2CN(C)C)c1 (racemic) [Treatment A, (±) cis-2-[(dimethylamino)methyl]-1-(3-methoxyphenyl)cyclo-hexanol hydrochloride]	30.3 ± 21.2	22.3 ± 20.1	18.3 ± 20.6	15.3 ± 17.2	12.3 ± 21.2	14.3 ± 19.2	15.3 ± 21.3	14.3 ± 19.2	14.3 ± 19.2
